Tests used:
Equ c 1.0102 [1] = target: T1, Equ c 1.0102 (Equus caballus, UniProt A0A3Q2HX90); assay: competitive displacement of fluorescent probe 1-NPN, 12-point titration, one-site fit; assay type: binding
T1 construct: mature protein, residues 16-187 (signal peptide removed), C-terminal His6 tag, codon-optimized synthetic cDNA in pET-21d(+), E. coli Rosetta-gami 2(DE3), purified by HisTrap
T1 sequence (A0A3Q2HX90 16-187): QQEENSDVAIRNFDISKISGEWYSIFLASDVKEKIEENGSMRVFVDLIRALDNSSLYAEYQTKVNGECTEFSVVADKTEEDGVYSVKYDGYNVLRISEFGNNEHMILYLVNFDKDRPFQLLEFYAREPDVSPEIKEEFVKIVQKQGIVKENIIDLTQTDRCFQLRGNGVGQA

Equ c 1.0102 [2] = target: T1, Equ c 1.0102; assay: fluorescent probe binding (excitation […] nm, emission […] nm); details: read-out: dissociation constant
Equ c 1.0102 [3] = target: T1, Equ c 1.0102; assay: as above

| Ki (Equ c 1.0102 [1]) | Compound | Kd (Equ c 1.0102 [2]) | EC50 (Equ c 1.0102 [3]) |
| --- | --- | --- | --- |
| 600 nM | CC(C)CCCC(C)CCO (stereo not shown) [3,7-dimethyl-1-octanol] |  |  |
| 1100 nM | CCCCCCCCCCO [1-decanol] |  |  |
|  | c1ccc(Nc2cccc3ccccc23)cc1 [1-NPN] | 6.4 µM | 5 µM |
